Values joined by “and” are separate entries in the source; they are usually repeats but may differ in a detail not shown here. Identical values can stand only once. Like-named read-outs stand apart in the source and are kept apart here.
Assays:
[1] = Fe3+ content per 500 mg compound (selection criterion 3); type: physicochemical
Description: 3. Appropriate equivalence of ferric ion per gram of compound. The potential ferric compound should contain enough ferric ions to effectively bind with dietary phosphate.

[2] = cited from earlier work
[3] = Harvey et al. 1998; cited from earlier work

Compound	Fe^3+ content per 500 mg compound ([1]; per 500 mg compound, unit mg)	pKa of anionic group [2]	further results
ferric histidinate	54 mg		
O=C[O-].O=C[O-].O=C[O-].[Fe+3] [ferric formate]		pKa = 3.75	Fe^3+ content per 500 mg compound [1]: 147 mg
ferric aspartate	62 mg	pKa = 1.99	
O=C([O-])CN(CCN(CC(=O)[O-])CC(=O)O)CC(=O)[O-].[Fe+3] [ferric EDTA]	81 mg		
C[N+](C)(C)CCO.O=C([O-])CC(O)(CC(=O)[O-])C(=O)[O-].[Fe+3] [ferric choline citrate]			Fe^3+ content per 500 mg compound [1]: 79 mg
O=C([O-])CN(CCO)CCN(CC(=O)[O-])CC(=O)[O-].[Fe+3] [ferric HEDTA]	85 mg		
Cc1occc(=O)c1[O-].Cc1occc(=O)c1[O-].Cc1occc(=O)c1[O-].[Fe+3] [ferric trimaltol]	65 mg		correcting iron deficiency [3]: capable of correcting iron deficiency
ferric ascorbate	121 mg	pKa = 4.04	
ferric oleate	31 mg		
CCCCC(CC)C(=O)[O-].CCCCC(CC)C(=O)[O-].CCCCC(CC)C(=O)[O-].[Fe+3] (stereo not drawn) [ferric octoate]	58 mg		
O=C([O-])CC(O)C(=O)[O-].O=C([O-])CC(O)C(=O)[O-].O=C([O-])CC(O)C(=O)[O-].[Fe+3].[Fe+3] (stereo not drawn) [ferric malate]	110 mg	pKa = 3.4	
O=C([O-])C(=O)[O-].O=C([O-])C(=O)[O-].O=C([O-])C(=O)[O-].[Fe+3].[Fe+3] [ferric oxalate]	142 mg	pKa = 1.25	
ferric gluconate	44 mg		
O=C([O-])/C=C/C(=O)[O-].O=C([O-])/C=C/C(=O)[O-].O=C([O-])/C=C/C(=O)[O-].[Fe+3].[Fe+3] [ferric fumarate]	125 mg	pKa = 3.02	
ferric tartrate	56 mg and 100 mg		pKa of anionic group, pKa1 ([2]; first pKa): pKa1 = 2.98; pKa of anionic group, pKa2 ([2]; second pKa): pKa2 = 4.34
O=C([O-])[O-].O=C([O-])[O-].O=C([O-])[O-].[Fe+3].[Fe+3] [ferric carbonate]		10.3	Fe^3+ content per 500 mg compound [1]: 191 mg
ferric picolinate	66 mg		
ferric citrate [reference compound]	114 mg	pKa = 6.4	
CC(=O)/C=C(/C)[O-].CC(=O)/C=C(/C)[O-].CC(=O)/C=C(/C)[O-].[Fe+3] [ferric acetylacetonate]	78 mg		
NCC(=O)[O-].NCC(=O)[O-].NCC(=O)[O-].[Fe+3] [ferric triglycinate]		pKa = 2.35	Fe^3+ content per 500 mg compound [1]: 100 mg
CC(=O)[O-].CC(=O)[O-].CC(=O)[O-].[Fe+3] [ferric acetate]			Fe^3+ content per 500 mg compound [1]: 120 mg
